Measurements published in US20060211628A1 (priority 2002, published 2006).

Columns and labels:
[1] = in vivo; cited from earlier work
[2] = tested on: Neuroblastoma SHSY5Y (NB) cells; assay: Protection from oxidative stress in vitro, neutral red survival assay; format: cell-based; conditions: compound at 0.1 mM
Procedure: Protection from oxidative stress in vitro: Neuroblastoma SHSY5Y (NB) cells were maintained in Dulbeco's Modified Eagle's Medium (DMEM), supplemented with 8% FCS and 8% horse serum, penicillin (25 μg/ml), streptomycin (25 μg/ml), 2 mM L-glutamine and 400 μg/ml G418 (Gibco/BRL). For protection experiments cells were subcultured (in 2% serum) to poly-L-lysine-coated 96-well microtiter plates (Nunc), 100 μl of 5×10^5 cells/ml, CEA was applied to the cells in each well and 4 hours later DA, L-dopa (levodopa), 6-OHDA and MPP+ were added for 24 hours.
Survival was assayed by adding neutral red (0.34%, Sigma) to cells in DCCM-1 medium (0.1 ml/well, Bet-Haemek) and incubation for 2 hour at 37° C. The cells were then washed with cold PBS containing 10 mM MgCl2 and the dye was dissolved in 50% ethanol in 50% Somerson buffer (70 mM sodium citrate, 30 mM citric acid, 0.1 N HCl). ELISA reader (590 nm) was used to measure the remaining color intensity.

[3] = Crossing the blood-brain-barrier: compound J level in brain extracts by fluorescent labeling and HPLC; format: in vivo, C57BL/6J mice; conditions: IP injection 0.25-4 mg, brain extracts 15 min later
Procedure: Detection of compound j (referred to in this Example also as CEA) was established using high performance liquid chromatography (HPLC). To this end, CEA was treated with a fluorescent thiolyte reagent (monobromobimane reagent) and analyzed on an HPLC column.
Crossing the blood-brain-barrier: In vivo experiments were carried out on C57BL/6J mice (15 grams) injected IP with compound J. After incubation (15 min, 60 min or 4 hours) the mice were anesthetized with ether and blood samples were drawn. Then mice underwent perfusion with 50 ml of saline, injected into the right ventricle. The levels of compound I in the brain and in the plasma were detected by selective fluorescent labeling using high performance liquid chromatography (HPLC).
Increasing amounts of compound J were injected IP and 15 min later, mice were perfused with saline and compound J levels in the brain extracts were determined by HPLC chromatography (FIG. 5b), as compared to a control, pure, uninjected compound J (FIG. 5a).

[4] = tested on: GSH; assay: Brain GSH levels after IP injection of compound J (HPLC); format: in vivo, C57BL/6J mice; conditions: brain extract after IP injection
[5] = tested on: MOG-induced EAE; assay: Prevention of MOG-induced experimental autoimmune encephalomyelitis (EAE); format: in vivo, C3H.SW female mice; conditions: 200 mg/kg IP twice a day plus 300 mg/kg in drinking water
Procedure: EAE was induced in C3H.SW female mice (4-6 weeks old, Harlen, Rehovot, Israel) by immunization with the peptide encompassing amino acids 35-55 of rat myelin oligodendrocyte glycoprotein (MOG). Synthesis was carried out by the Weizmann Institute Synthesis Unit, using a solid-phase technique on a peptide synthesizer (Applied Biosystems Inc., Foster City, Calif. City). Mice were injected subcutaneously at one site in the flank with a 200 μl emulsion containing 75 μg MOG peptide in complete Freund's adjuvant (CFA). An identical booster immunization was given at one site of the other flank one week later. Mice (n=16) were injected intraperitonealy with Compound J (200 mg/kg) twice a day and in addition, were given Compound J orally in the drinking water (300 mg/kg) on day 1 of the MOG injection and for additional 35 days post injection. Control mice (n=16) were injected twice a day with 200 mg of saline for the same time period. 0=no clinical symptom's; 1=loss of tail tonicity; 2=partial hind limb paralysis; 3=complete hind limb paralysis; 4=paralysis of four limbs; 5=total paralysis; 6=death.

[6] = tested on: endogenous reduced glutathione (GSH); assay: In vivo antioxidation: striatum/serum endogenous GSH after IP injection of compound A; parameters: species or system Balb/c mice; conditions: injected IP, 100-300 mg/kg, three hours post injection
Procedure: With reference now to FIG. 3. To this end, three groups of two months old Balb/c mice containing two animals in each group were injected intraperitonealy (IP) with 100-300 mg/kg body weight of compound A. Blood samples were drawn from the tail three hours post injection and then the animals were sacrificed and either the corpus striatum or the whole brain were removed and analyzed for GSH levels.
GSH levels were determined using the experimental procedures as described hereinbelow and/or the GSH-400 kit (Oxis International, Inc.).
Preparation of brain homogenates: Animals were rapidly killed and exsanguinated to remove excess blood from the brain. The brain of each animal was rinsed in a beaker containing water, lightly blotted to dry and were weighted. The striatums were transferred into a hand-homogenizer tube and each was homogenized using a constant number (e.g., 20) of up and down strokes of the hand-homogenizer pestle. Each of the homogenates was poured into a centrifuge tube and centrifuged for 10,000×g for 5 min. The supernatant was used for GSH determination as follows.
GSHAssay: For each measurement, 200 μl of sample were incubated with 20 μl DTNB [5,5′ dithio bis(2-nitrobenzoic acid)] for 1 hour in 37° C. Final absorbance was measured at 400 nm. Similar results were obtained using the GSH-400 kit. […]

Q: With `CC(=O)N[C@@H](CS)C(=O)O` [N-acetyl-cysteine] as the compound, how does the “lethal dose 50% (LD50)” value [1] read?
A: 5,050 mg/kg

Q: With `CC(=O)NC(CS)C(N)=O` (centres unmarked) [compound J] as the compound, how does the “Protection of NB cells against the toxicity of DA, L-dopa, 6-OHDA (0.1-0.25 mM) and MPP+ (0.5-2 mM)” value [2] read?
A: protect

Q: What about the “Compound J in the brain” value [3] of the same compound?
A: concentration-dependent increase

Q: And the “GSH levels increase over untreated animals” value [4]?
A: up to 46%

Q: And the “Incidence and clinical severity of the disease” value [5]?
A: markedly reduced

Q: What about the “Mice remaining disease free” value ([5]; day 1 to 35 days post injection, n=16) of the same compound?
A: 15 out of the 16

Q: What about the “Mean of total clinical score (0-6 scale)” value ([5]; n=16, SE) of the same compound?
A: 0.1+0.1

Q: With `CCOC(=O)[C@H](CS)NC(C)=O` [compound A, N-acetyl cysteine ethyl ester] as the compound, how does the “Level of endogenous GSH in striatum” value [6] read?
A: increases
